Measurements taken from PubChem BioAssay AID1845208 (Molecular Pharmacology Branch, DTP, NCI, 2023).

Tested on: NCI-H196 SCLC complex tumor spheroid viability
Test: Anticancer human tumor NCI-H196 cell line growth inhibition;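 also: spheroids exposed to compounds for 7 days before readout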;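 as to viability, T/C: 100% = DMSO vehicle control wells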
Settings: for IC50: curve of first compound; for viability, T/C: stronger effect = lower value
Excerpt: Multicellular complex tumor spheroid response to DNA repair inhibitors in combination with DNA-damaging drugs
This study explores the anticancer activities of DNA-damaging drugs and inhibitors of DNA damage repair, both as single agents and in combinations. Complex tumor spheroids comprised of malignant cells, endothelial cells and mesenchymal stem cells served as an in vitro model for human solid tumors. This model system incorporates physiologically relevant features and patient-derived or established malignant cell lines with clinically relevant genetic alterations from many tumor types. Twenty-six patient-derived or established malignant cell lines were evaluated representing sarcoma, melanoma, small cell lung cancer (SCLC), non-small cell lung cancer (NSCLC), as well as bladder, ovarian and pancreatic cancers. The concentration ranges selected for each drug and investigational agent were based upon clinically achievable concentrations if the clinical Cmax of the agent was known.
Compounds. The drugs and compounds olaparib (NSC753686), talazoparib (NSC767125), berzosertib (NSC777718), elimusertib (NSC800525), nedisertib (NSC802822), VX-984 (NSC792969), AZD-1390 (NSC803789), temozolomide (NSC362856), topotecan (NSC609699), trabectedin (NSC813783), staurosporine (NSC755774), and gemcitabine (NSC613327) were obtained from the National Cancer Institute (NCI) Developmental Therapeutics Program Chemical Repository. The FDA-approved anticancer drug set is available from the Developmental Therapeutics Program at https://dtp.cancer.gov/organization/dscb/obtaining/available_plates.htm. […] The stock solutions were prepared in dimethyl sulfoxide (DMSO, Sigma-Aldrich, St. Louis, MO, cat. D2650) at 400-fold the tested concentration and stored at -70 degrees C. Prior to their use, the stock solutions were diluted in fresh medium and the final DMSO concentration in the assay was 0.25% (v/v). All drugs and investigational agents were tested over a range starting from a high concentration at or near the clinical Cmax and decreasing in half-log increments. If the clinical Cmax for an agent had not been determined, the highest concentration tested was 10 microM.
Cell Lines. The patient-derived cancer cell (PDC) lines: 156681-154-R-J1-PDC, 283228-195-R-J1-PDC, 287954-098-R-J1-PDC, 292921-168-R-J2-PDC, 349418-098-R-PDC, 425362-245-T-J1-PDC, 556581-035-R-J1-PDC, and BL0293-F563-PDC were received from the NCI Patient-Derived Models Repository (PDMR, https://pdmr.cancer.gov). The established cell lines HS-SY-2 (RRID:CVCL_8719), MPNST, and SYO-1 (RRID:CVCL_7146) were obtained from the Sloan Kettering Institute. The alveolar soft parts sarcoma cell line ASPS-1 (RRID:CVCL_S738) was established at the NCI and grown from internal seed stocks. The following established cell lines were purchased from the American Type Culture Collection (ATCC, Manassas, VA): G-401 (ATCC, cat. CRL-1441, RRID:CVCL_0270), SW982 (ATCC, cat. HTB-93, RRID:CVCL_1734), VA-ES-BJ (ATCC, cat. CRL-2138, RRID:CVCL_1785), NCI-H719 (ATCC, cat. CRL-5837, RRID:CVCL_1582), NCI-H196 (ATCC, cat. CRL-5823, RRID:CVCL_1509), NCI-H841 (ATCC, cat. CRL-5845, RRID:CVCL_1595), NCI-H1618 (ATCC, cat. CRL-5879, RRID:CVCL_1480), NCI-H1876 (ATCC, cat. CRL-5902, RRID:CVCL_1503), DMS 114 (ATCC, cat. CRL-2066; RRID:CVCL_1174), NCI-H211 (ATCC, cat. CRL-5824; RRID:CVCL_1529), and SW 1271 (ATCC, cat. CRL-2177, RRID:CVCL_1716). The small cell lung cancer cell line COR-L88 was purchased from Sigma-Aldrich (cat. 92031917-1VL, RRID:CVCL_1141). The non-small cell lung cancer cell lines NCI-H226 (RRID:CVCL_1544) and NCI-H322M (RRID:CVCL_1557) were established at the NCI and grown from internal seed stocks. Pooled donor human umbilical vein endothelial cells (HUVEC, Lonza, cat. CC-2519) and human mesenchymal stem cells (hMSC, Lonza, cat. PT-2501) were purchased from Lonza (Walkersville, MD).
Cell Culture. All cells were maintained in an incubator at 37 degrees C and 5% CO2 with 95% humidity. […]

[1] = second compound 0.003 µM, first compound 0.0949 µM
[2] = second compound 0.003 µM, first compound 0.3 µM
[3] = second compound 0.003 µM, first compound 0.949 µM
[4] = second compound 0.003 µM, first compound 3 µM
[5] = second compound 0.00949 µM, first compound 0.0949 µM
[6] = second compound 0.00949 µM, first compound 0.3 µM
[7] = second compound 0.00949 µM, first compound 0.949 µM
[8] = second compound 0.00949 µM, first compound 3 µM
[9] = second compound 0.03 µM, first compound 0.0949 µM
[10] = second compound 0.03 µM, first compound 0.3 µM
[11] = second compound 0.03 µM, first compound 0.949 µM
[12] = second compound 0.03 µM, first compound 3 µM
[13] = second compound 0.0949 µM, first compound 0.0949 µM
[14] = second compound 0.0949 µM, first compound 0.3 µM
[15] = second compound 0.0949 µM, first compound 0.949 µM
[16] = second compound 0.0949 µM, first compound 3 µM
[17] = second compound 0.3 µM, first compound 0.0949 µM
[18] = second compound 0.3 µM, first compound 0.3 µM
[19] = second compound 0.3 µM, first compound 0.949 µM
[20] = second compound 0.3 µM, first compound 3 µM

| SMILES | IC50 (second compound 0.003 µM) [µM] | IC50 (second compound 0.00949 µM) [µM] | IC50 (second compound 0.03 µM) [µM] | IC50 (second compound 0.0949 µM) [µM] | IC50 (second compound 0.3 µM) [µM] | viability, T/C [1] [%] | viability, T/C [2] [%] | viability, T/C [3] [%] | viability, T/C [4] [%] | viability, T/C [5] [%] | viability, T/C [6] [%] | viability, T/C [7] [%] | viability, T/C [8] [%] | viability, T/C [9] [%] | viability, T/C [10] [%] | viability, T/C [11] [%] | viability, T/C [12] [%] | viability, T/C [13] [%] | viability, T/C [14] [%] | viability, T/C [15] [%] | other results |
| --- | --- | --- | --- | --- | --- | --- | --- | --- | --- | --- | --- | --- | --- | --- | --- | --- | --- | --- | --- | --- | --- |
| O=C(c1cc(Cc2n[nH]c(=O)c3ccccc23)ccc1F)N1CCN(C(=O)C2CC2)CC1 + CC[C@@]1(O)C(=O)OCc2c1cc1n(c2=O)Cc2cc3c(CN(C)C)c(O)ccc3nc2-1 | > 30 | > 30 | > 30 | > 30 | > 30 | 95.4 | 95.2 | 88.3 | 88.2 | 97.7 | 91.3 | 98.7 | 95.9 | 100 | 98 | 101 | 103 | 96.3 | 107 | 99.6 | viability, T/C (second compound 0.003 µM, first compound 9.49 µM): 88.6%; viability, T/C (second compound 0.003 µM, first compound 30 µM): 85.6%; viability, T/C (second compound 0.00949 µM, first compound 9.49 µM): 94.3%; viability, T/C (second compound 0.00949 µM, first compound 30 µM): 96.6%; viability, T/C (second compound 0.03 µM, first compound 9.49 µM): 98.2%; viability, T/C (second compound 0.03 µM, first compound 30 µM): 92%; viability, T/C [16]: 99.6%; viability, T/C (second compound 0.0949 µM, first compound 9.49 µM): 102%; viability, T/C (second compound 0.0949 µM, first compound 30 µM): 97.2%; viability, T/C [17]: 86.8%; viability, T/C [18]: 90.9%; viability, T/C [19]: 88.4%; viability, T/C [20]: 93.9%; viability, T/C (second compound 0.3 µM, first compound 9.49 µM): 82.5%; viability, T/C (second compound 0.3 µM, first compound 30 µM): 83.1% |
| Cn1ncnc1[C@H]1c2n[nH]c(=O)c3cc(F)cc(c23)N[C@@H]1c1ccc(F)cc1 + CC[C@@]1(O)C(=O)OCc2c1cc1n(c2=O)Cc2cc3c(CN(C)C)c(O)ccc3nc2-1 | > 3 | > 3 | > 3 | > 3 | > 3 | 96.9 | 95.3 | 95 | 98.2 | 95.5 | 105 | 104 | 102 | 113 | 108 | 104 | 97.4 | 105 | 110 | 106 | viability, T/C (second compound 0.003 µM, first compound 0.00949 µM): 97.6%; viability, T/C (second compound 0.003 µM, first compound 0.03 µM): 90.2%; viability, T/C (second compound 0.00949 µM, first compound 0.00949 µM): 96.5%; viability, T/C (second compound 0.00949 µM, first compound 0.03 µM): 87.7%; viability, T/C (second compound 0.03 µM, first compound 0.00949 µM): 104%; viability, T/C (second compound 0.03 µM, first compound 0.03 µM): 110%; viability, T/C (second compound 0.0949 µM, first compound 0.00949 µM): 108%; viability, T/C (second compound 0.0949 µM, first compound 0.03 µM): 108%; viability, T/C [16]: 96.8%; viability, T/C (second compound 0.3 µM, first compound 0.00949 µM): 99.1%; viability, T/C (second compound 0.3 µM, first compound 0.03 µM): 99.9%; viability, T/C [17]: 91%; viability, T/C [18]: 95.3%; viability, T/C [19]: 91.2%; viability, T/C [20]: 82.5% |
